This is an account of results in patent US9359311B2, “Substituted aromatic oligomers” (NEUROSCIOS GMBH, priority 2011, dated 2016).

pIC50: −log10 of the molar value. “Also recorded” adds a separate entry of the source.

For experiment [1], the target named is T1, Human Aβ38, Aβ40 and Aβ42 (Homo sapiens, UniProt P05067).
T1 construct: from tissue; host or cells: CSF and left brain hemisphere (SDS fraction) of transgenic hAPPSL mice
The experiment is described as follows: Human Aβ38, Aβ40 and Aβ42 in SDS brain homogenate fraction of hAPPSL Tg mice after 90 days treatment. In kind it is in vivo, mouse. The note with it: twice daily i.p., p-FTAA 1 or 10 mg/kg/day, P9707_003 10 mg/kg/day. On the procedure: (§1) Vehicle: Phosphate Buffered Saline (PBS; 6.7 mM PO4, 155 mM NaCl, pH=7.3-7.5) (BioWhittaker PBS from Lonza).
(§2) Test item (T.I.): p-FTAA and P9707_003 diluted in vehicle from stock solution in deionized water (10 mg/ml).
(§3) Tg hAPPSL: Transgenic hAPPSL mice over-expressing hAPP(751) under the control of the murine Thy-1 promoter with a C57BL/6xDBA background.
(§4) Human Aβ38, Aβ40 and Aβ42 were determined in homogenates of the left brain hemispheres and in CSF samples of all Tg animals by an immunosorbent assay from Mesoscale Discovery
(§5) 48 hAPP Tg mice plus 4 reserves allocated to 4 different treatment groups were treated with either vehicle only (control), p-FTAA or P9707_003. As an additional control, 12 nTg littermates of the hAPPSL mice (plus 1 reserve) were treated with vehicle only. Starting at 6.5 months of age, female hAPPSL mice were treated with vehicle only, p-FTAA (dosage: 1 or 10 mg/kg/day) or P9707_003 (dosage: 10 mg/kg/day) for 90 days. […]
(§6) In the brain homogenate SDS fraction and in CSF of each Tg mouse, human Aβ38, Aβ40 and Aβ42 levels were measured with a Aβ-kit from Mesoscale Discovery. Aβ levels were evaluated in comparison to a peptide standard as pg/mg brain (wet weight) or pg/ml CSF.
Descriptive statistical analysis was performed on all evaluated parameters. […] Group differences between all Tg groups were calculated by a parametric ANOVA followed by a Bonferroni post test.

Experiment [2] relates to amyloid depositions (plaques). The experiment in a line: Plaque number and plaque area in hAPPSL Tg mice (ThioflavinS staining). The note with it: twice daily i.p., 90 days, vs vehicle. In kind it is in vivo, mouse. On the procedure: as §1
Test Item (T.I.): p-FTAA and P9707_003, diluted in vehicle from stock solution in deionized water (10 mg/ml).
as §3
as §5, with “days. The Test Items (T.I.s) were administered in Vehicle. Compound and vehicle were administered twice daily i.p. for 90 days. Tg hAPPSL mice with a C57BL/6xDBA background and corresponding nTg littermates at an age of 6.5 months (+2 weeks) were randomly assigned to the treatment groups.” for “days.”
Plaque load was quantified by staining with ThioflavinS staining of beta-sheet structures in a double incubation.
For determination of amyloid depositions 5 slices (1 from each level) per brain were stained and screened. Region areas (hippocampus and cortex) were measured and plaque surface area, number of plaques and mean size of objects within each region were quantified separately using automated image analysis software (Image Pro Plus, version 6.2).
Mosaic images for plaque load quantification including the whole cortex and hippocampus were recorded on a Zeiss AxioImager.Z1 microscope using high aperture lenses and an AxioVision 4.8 software driven AxioCam MRm (10× lens, 1× optocoupler). Plaques for AT180 quantifcation were imaged with a 20× lens. […]
Descriptive statistical analysis was performed on all evaluated parameters, Kolmogorov Smirnov test were performed to test normal distribution of data. […]

Experiment [3] addresses T1, Human Aβ38, Aβ40 and Aβ42. The experiment is described as follows: Human Aβ38, Aβ40 and Aβ42 in CSF of hAPPSL Tg mice after 90 days treatment (immunosorbent assay). In kind it is in vivo, mouse. The note with it: twice daily i.p. On the procedure:
as §1, §2, §3, §4
48 hAPP Tg mice plus 4 reserves allocated to 4 different treatment groups were treated with either vehicle only (control), p-FTAA or P9707_003. As an additional control, 12 nTg littermates of the hAPPSL mice (plus 1 reserve) were treated with vehicle only. Starting at 6.5 months of age, female hAPPSL mice were treated with vehicle only, p-FTAA (dosage: 1 or 10 mg/kg/day) or P9707_003 (dosage: 10 mg/kg/day) for 90 days. The Test Items (T.I.s) were administered in Vehicle. Compound and vehicle were administered twice daily i.p. for 90 days. Tg hAPPSL mice with a C57BL/6xDBA background and corresponding nTg littermates at an age of 6.5 months (±2 weeks) were randomly assigned to the treatment groups.
as §6
Descriptive statistical analysis was performed on all evaluated parameters. All data were represented as mean±standard error of mean (SEM). Grubb's test was used to detect outliers. Normality distribution of the values was tested with Kolmogorov Smirnov normality distribution test. Group differences between all Tg groups were calculated by a parametric ANOVA followed by a Bonferroni post test.

The next experiment concerns the target T2, biotinylated Aβ1-42 (Homo sapiens, UniProt P05067).
T2 construct: To assure monomerisation of biotinylated Aβ1-42 (Anaspec #23523-0.5) the peptide was thoroughly monomerised; purchased Anaspec 23523-0.5
The experiment is described as follows: Inhibition of Abeta oligomerisation (biotinylated Aβ1-42, neutravidin plate, streptavidin-HRP). The settings on record: inhibition of Aβ1-42 aggregation, approximately 12 nM Aβ1-42, PBS pH 7.4, 2% DMSO, 30 min RT. In kind it is biochemical.

Setting [4] is: P9707_003 10 mg/kg/day, p-FTAA 1 or 10 mg/kg/day.

T1 sequence (P05067 672-713 limits assumed): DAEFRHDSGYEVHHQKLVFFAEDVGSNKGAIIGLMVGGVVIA
T2 sequence (P05067 672-713 limits assumed): as above

As a reminder, the pIC50 is the IC50 on a negative log10 scale, so that one unit is a factor of ten. Turning to `O=C(O)Cc1ccsc1-c1ccc(-c2sc(-c3ccc(-c4cc(CC(=O)O)c(-c5ccc(-c6sccc6CC(=O)O)s5)s4)s3)cc2CC(=O)O)s1` [Example 1, 2-(2-{5-[3-(Carboxymethyl)-5-{5-[4-(carboxymethyl)-5-{5-[3-(carboxymethyl)thiophen-2-yl]thiophen-2-yl}thiophen-2-yl]thiophen-2-yl}thiophen-2-yl]thiophen-2-yl}thiophen-3-yl)acetic acid], the “aggregated Aβ38, Aβ40 and Aβ42 in SDS fraction of brain homogenate” value in experiment [1] was “significant decrease; also recorded: reduced”. For the same molecule, in experiment [2] (10 mg/kg/day, ThioflavinS), the “reduction of plaque number in the hippocampus” value stood at 54%. Moreover, in experiment [2] (setting [4]), the “hippocampal plaque area percentage (ThioflavinS)” value is “significantly lower plaque load; also recorded: reduced” and the “number of ThioflavinS positive objects (plaque number) in the hippocampus” value was “reduced object number; also recorded: highly significant reduced”. Further, the “Mean Aβ levels in CSF, relative to vehicle control (PBS control)” value in experiment [3] (10 mg/kg/day, female hAPPSL Tg mice, Aβ38, Aβ40, Aβ42, % of vehicle control) is recorded as “about 60%”. For the same molecule, in experiment [3] (hAPPSL Tg mice, p-FTAA 1 or 10 mg/kg/day, P9707_003 10 mg/kg/day), the “CSF Aβ levels” value is on record as “decreased”. The molecule also showed a pIC50 against biotinylated Aβ1-42 of 6.10.
